≈ marks a conversion by molar mass, not a printed value. Ends that are not written are not given here.
What was measured:
[1] = Aqueous solubility of peptides; settings: for Solubility of unmodified peptide epitope: Table 1; for solubility / water solubility (in words): water
[2] = from Vasievich et al.; cited from earlier work
[3] = system: CD8 T cells; test: Trp2-specific CD8 T cell response in splenocytes of vaccinated mice (intracellular IFN-γ staining, flow cytometry); assay type: in vivo, C57BL/6 mice; settings: peptide in nanoparticles with cdGMP; FIG. 10
Experimental: The immunogenicity of modified Trp2 peptides was tested by encapsulating them in the aqueous core of hollow thin-shell nanoparticles together with a fixed amount of stimulator of interferon genes (STING) agonist cyclic di-GMP (cdGMP) and injecting them into mice.
The modified Trp2 peptides were as follows: (i) D4-Trp2-D5, (ii) Trp2-D5, (iii) D5-Trp2, (iv) D2G3-Trp2-G3D2, (v) Trp2-G3D3, and (vi) D3G3-Trp2. As Trp2 itself cannot be incorporated into the aqueous core due to its hydrophobicity, a longer Trp2 peptide, namely, Trp2168-195 was encapsulated as a positive control.
Nanoparticles each containing an equivalent dose of one of the Trp2 peptides and cdGMP were prepared as described in Example 1 above and administered to C57BL/6 mice on day 0 and day 21 by subcutaneous injection at the base of the tail. On day 28, splenocytes of the vaccinated mice were isolated and examined for Trp2-specific CD8 T cell immune responses. Briefly, splenocytes from each mouse were challenged with Trp2 peptide and expression of IFN-γ in CD8 T cells was measured by intracellular cytokine staining and flow cytometry.

[4] = system: JAWSII dendritic cells; test: Dendritic cell surface marker expression after nanoparticle incubation and LPS stimulation; assay type: cell-based; settings: FIG. 24
Experimental: FIG. 24 includes bar graphs showing the percentage of JAWSII dendritic cells expressing CD80 (upper left panel), CD86 (upper right panel), MHC I (bottom left panel) and MHC II (bottom right panel) assessed by flow cytometric analysis after the cells were co-cultured with the indicated aspirin/peptide formulations.
Dendritic cells were incubated with nanoparticles co-encapsulating adaptor modified OTII peptide and aspirin or adaptor-modified peptides only for 6 h, and then were stimulated with low dose of lipopolysaccharide (“LPS”). Dendritic cell phenotypes were observed 24 h later. See the experimental scheme in FIG. 23.

CC[C@H](C)[C@H](NC(=O)[C@@H](NC(=O)[C@@H](N)CO)[C@@H](C)CC)C(=O)N[C@@H](CC(N)=O)C(=O)N[C@@H](Cc1ccccc1)C(=O)N[C@@H](CCC(=O)O)C(=O)N[C@@H](CCCCN)C(=O)N[C@@H](CC(C)C)C(=O)O [OVA257-264, SIINFEKL]
Solubility of unmodified peptide epitope [1]: hydrophilic
solubility [1]: 2 mM (≈ 1930 µg/mL)

CC(C)C[C@H](NC(=O)[C@H](Cc1c[nH]c2ccccc12)NC(=O)[C@@H](NC(=O)[C@H](Cc1ccccc1)NC(=O)[C@H](Cc1ccccc1)NC(=O)[C@H](CC(=O)O)NC(=O)[C@H](Cc1ccc(O)cc1)NC(=O)[C@@H](NC(=O)[C@@H](N)CO)C(C)C)C(C)C)C(=O)O [Trp2, SVYDFFVWL]
maximum solubility in water [2]: 0.06 mM

AQLANDVVL [Resp1, AQLANDVVL]
Solubility of unmodified peptide epitope [1]: hydrophobic
water solubility (in words) [1]: poorly soluble

ASMTNMELM [Adpgk, ASMTNMELM]
Solubility of unmodified peptide epitope [1]: hydrophobic
water solubility (in words) [1]: poorly soluble

DDDGGGSIINFEKL [D3G3-OVA]
solubility [1]: 50 mM

DDDGGGSVYDFFVWL [D3G3-Trp2, DDDGGGSVYDFFVWL]
solubility fold higher than the Trp2 peptide ([1]; H2O): over 500 fold
solubility [1]: > 30 mM

FQDAYNAAGGHNAVF [Mycobacterium tuberculosis p25, FQDAYNAAGGHNAVF]
Solubility of unmodified peptide epitope [1]: hydrophobic

ISQAVHAAHAEINEAGR [OT-II, ISQAVHAAHAEINEAGR]
Solubility of unmodified peptide epitope [1]: hydrophilic

KVPRNQDWL [gp100, KVPRNQDWL]
Solubility of unmodified peptide epitope [1]: hydrophilic

QVYSLIRPNENPAHK [influenza virus nucleoprotein NP311, QVYSLIRPNENPAHK]
Solubility of unmodified peptide epitope [1]: hydrophilic

SIIVFNLL [Dpagt1, SIIVFNLL]
Solubility of unmodified peptide epitope [1]: hydrophobic
water solubility (in words) [1]: poorly soluble

TAYRYHLL [Trp1m, TAYRYHLL]
Solubility of unmodified peptide epitope [1]: hydrophilic

Trp2168-195: longer Trp2 peptide containing sequences flanking the target epitope 180-188; positive control
CD8+ T cell response, fold weaker compared to D3G3-Trp2 [3]: ~20 fold

lipopolysaccharide [LPS]
expression of CD80, CD86, MHC I, and MHC II compared to vehicle control [4]: increased expression

Source: US20220267478A1, “PEPTIDE-LOADED CARRIER SYSTEMS AND USES THEREOF” (Academia Sinica, priority 2019, published 2022)
